For eight molecules, IC50 results are on record in patent publication US9175011B2, “Morpholino substituted urea or carbamate derivatives as MTOR inhibitors” (CELLZOME LIMITED, priority 2011, dated 2015).

For assay [1], the target named is T1, PI3K beta (PI3Kb) (Homo sapiens, UniProt P42338).
T1 construct: Jurkat cells were homogenized in a Potter S homogenizer in lysis buffer; endogenous in cells; host or cells: Jurkat, clone E6-1 (ATCC TIB-152) lysate
Put plainly: kinobeads assay, PI3K beta. The class given is binding. The conditions noted are these: Jurkat cell lysate, read-out: Inhibition values (IC50) PI3Kb. As for the experimental part: (§1) The compounds of the present invention as described were tested in the mTOR kinobeads assay as described below. Briefly, test compounds (at various concentrations) and the affinity matrix (1:1 mixture of beads with immobilized phenylthiazole ligand 1 and beads with immobilized phenylmorpholin-chromen ligand; WO 2009/098021) were added to cell lysate aliquots and allowed to bind to the proteins in the lysate sample. After the incubation time the beads with captured proteins were separated from the lysate. Bound proteins were then eluted and the presence of mTOR, PI3K alpha (PI3Kα), PI3K beta (PI3Kb), PI3K gamma (PI3Kg), PI3K delta (PI3Kd) and DNA-dependent protein kinase (DNA-PK) was detected and quantified using a specific antibody in a dot blot procedure and the Odyssey infrared detection system. Dose response curves for individual kinases were generated and IC50 values calculated. Kinobeads assays for PI3 kinases (WO-A 2008/015013) and for kinase selectivity profiling (WO 2009/098021) have been previously described.
(§2) The affinity matrix (beads with immobilized phenylmorpholin-chromen ligand) was washed three times with 15 ml of 1×DP buffer containing 0.2% NP40 (IGEPAL® CA-630, Sigma, #13021) and then resuspended in 5.5 ml of 1×DP buffer containing 0.2% NP40 (10% beads slurry).
(§3) 5×DP buffer: 250 mM Tris-HCl pH 7.4, 25% Glycerol, 7.5 mM MgCl2, 750 mM NaCl, 5 mM Na3VO4, filter the 5×-lysis buffer through 0.22 μm filter and store in aliquots at −80° C. The 5×DP buffer is diluted to 1×DP buffer containing 1 mM DTT and 25 mM NaF.
(§4) Stock solutions of test compounds were prepared in DMSO. In a 96 well plate 30 μl solution of diluted test compounds at 5 mM in DMSO were prepared. Starting with this solution a 1:3 dilution series (9 steps) was prepared. For control experiments (no test compound) a buffer containing 2% DMSO was used. Compound PI-103 served as a positive control (Calbiochem catalogue number 528100).
(§5) Jurkat cells (ATCC catalogue number TIB-152 Jurkat, clone E6-1) were grown in 1 liter Spinner flasks (Integra Biosciences, #182101) in suspension in RPMI 1640 medium (Invitrogen, #21875-034) supplemented with 10% Fetal Bovine Serum (Invitrogen) at a density between 0.15×10^6 and 1.2×10^6 cells/ml. Cells were harvested by centrifugation, washed once with 1×PBS buffer (Invitrogen, #14190-094) and cell pellets were frozen in liquid nitrogen and subsequently stored at −80° C.
(§6) Jurkat cells were homogenized in a Potter S homogenizer in lysis buffer: 50 mM Tris-HCl, 0.8% NP40, 5% glycerol, 150 mM NaCl, 1.5 mM MgCl2, 25 mM NaF, 1 mM sodium vanadate, 1 mM DTT, pH 7.5. One complete EDTA-free tablet (protease inhibitor cocktail, Roche Diagnostics, 1873580) per 25 ml buffer was added. The material was dounced 10 times using a mechanized POTTER S, transferred to 50 ml falcon tubes, incubated for 30 minutes on ice and spun down for 10 min at 20,000 g at 4° C. (10,000 rpm in Sorvall SLA600, precooled). The supernatant was transferred to an ultracentrifuge (UZ)-polycarbonate tube (Beckmann, 355654) and spun for 1 hour at 100.000 g at 4° C. (33.500 rpm in Ti50.2, precooled). The supernatant was transferred again to a fresh 50 ml falcon tube, the protein concentration was determined by a Bradford assay (BioRad) and samples containing 50 mg of protein per aliquot were prepared. The samples were immediately used for experiments or frozen in liquid nitrogen and stored frozen at −80° C.
(§7) Jurkat cell lysate (approximately 50 mg protein per plate) was thawed in a water bath at room temperature and then kept on ice. To the thawed cell lysate 1×DP 0.8% NP40 buffer containing protease inhibitors (1 tablet for 25 ml buffer; EDTA-free protease inhibitor cocktail; Roche Diagnostics 1873580) was added in order to reach a final protein concentration of 5 mg/ml total protein. The diluted cell lysate was stored on ice. […]

Assay [2] has as its target T2, DNA-dependent protein kinase (DNA-PK) (Homo sapiens, UniProt P78527).
T2 construct: Jurkat cells were homogenized in a Potter S homogenizer in lysis buffer; endogenous in cells; host or cells: Jurkat, clone E6-1 (ATCC TIB-152) lysate
Put plainly: kinobeads assay, DNA-PK. The class given is binding. The following applies: Jurkat cell lysate, read-out: Inhibition values (IC50) DNA-PK. As for the experimental part:
as §1, §2, §3, §4, §5, §6, §7

The target of assay [3] is T3, PI3K delta (PI3Kd) (Homo sapiens, UniProt O00329).
T3 construct: Jurkat cells were homogenized in a Potter S homogenizer in lysis buffer; endogenous in cells; host or cells: Jurkat, clone E6-1 (ATCC TIB-152) lysate
T3 sequence (O00329 whole entry): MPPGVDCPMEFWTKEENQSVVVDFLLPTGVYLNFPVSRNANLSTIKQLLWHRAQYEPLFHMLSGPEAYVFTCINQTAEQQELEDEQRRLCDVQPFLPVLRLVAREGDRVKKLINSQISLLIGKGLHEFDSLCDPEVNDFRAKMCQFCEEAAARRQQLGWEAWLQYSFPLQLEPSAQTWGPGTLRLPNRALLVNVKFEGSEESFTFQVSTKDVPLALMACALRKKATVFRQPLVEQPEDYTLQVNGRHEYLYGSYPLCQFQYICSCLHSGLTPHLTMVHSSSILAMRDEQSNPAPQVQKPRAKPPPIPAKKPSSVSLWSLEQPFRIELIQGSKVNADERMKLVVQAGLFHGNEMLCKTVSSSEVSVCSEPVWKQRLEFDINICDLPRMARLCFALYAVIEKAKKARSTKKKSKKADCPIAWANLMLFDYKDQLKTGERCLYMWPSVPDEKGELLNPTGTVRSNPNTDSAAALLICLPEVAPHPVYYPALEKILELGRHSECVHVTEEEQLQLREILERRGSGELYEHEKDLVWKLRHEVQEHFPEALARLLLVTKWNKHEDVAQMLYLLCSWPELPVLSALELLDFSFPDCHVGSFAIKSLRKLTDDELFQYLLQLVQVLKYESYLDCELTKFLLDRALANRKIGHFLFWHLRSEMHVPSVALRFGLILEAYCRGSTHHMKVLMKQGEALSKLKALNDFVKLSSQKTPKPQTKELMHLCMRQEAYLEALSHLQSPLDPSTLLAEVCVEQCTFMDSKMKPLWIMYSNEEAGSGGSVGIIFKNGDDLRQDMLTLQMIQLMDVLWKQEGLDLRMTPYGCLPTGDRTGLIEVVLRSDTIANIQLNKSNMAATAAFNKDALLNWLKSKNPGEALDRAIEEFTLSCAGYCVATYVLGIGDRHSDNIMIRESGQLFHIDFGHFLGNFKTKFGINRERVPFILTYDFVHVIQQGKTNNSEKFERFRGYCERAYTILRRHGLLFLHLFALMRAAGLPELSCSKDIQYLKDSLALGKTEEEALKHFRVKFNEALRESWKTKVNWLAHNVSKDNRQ
T3 sequence (P27986 whole entry partner): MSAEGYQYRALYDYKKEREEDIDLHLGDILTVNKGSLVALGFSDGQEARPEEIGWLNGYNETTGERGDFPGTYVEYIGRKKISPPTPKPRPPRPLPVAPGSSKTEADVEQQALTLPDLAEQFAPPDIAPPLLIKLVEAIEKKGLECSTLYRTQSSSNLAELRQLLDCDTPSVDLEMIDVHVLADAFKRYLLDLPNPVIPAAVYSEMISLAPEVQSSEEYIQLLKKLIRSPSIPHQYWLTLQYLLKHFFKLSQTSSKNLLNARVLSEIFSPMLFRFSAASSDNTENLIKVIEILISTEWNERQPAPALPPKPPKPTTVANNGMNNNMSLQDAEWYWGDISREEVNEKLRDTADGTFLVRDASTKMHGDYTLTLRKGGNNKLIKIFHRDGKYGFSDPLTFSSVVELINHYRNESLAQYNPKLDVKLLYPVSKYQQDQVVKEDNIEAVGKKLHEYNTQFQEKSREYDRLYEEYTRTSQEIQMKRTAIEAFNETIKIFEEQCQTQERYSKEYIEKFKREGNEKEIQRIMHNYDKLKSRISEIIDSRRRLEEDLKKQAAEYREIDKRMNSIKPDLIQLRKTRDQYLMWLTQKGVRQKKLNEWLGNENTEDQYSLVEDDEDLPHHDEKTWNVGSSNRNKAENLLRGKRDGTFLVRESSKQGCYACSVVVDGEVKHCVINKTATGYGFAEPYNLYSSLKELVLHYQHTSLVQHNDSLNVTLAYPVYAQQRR
The assay is described as follows: kinobeads assay, PI3K delta. The class given is binding. The conditions noted are these: Jurkat cell lysate, read-out: Inhibition values (IC50) PI3Kd. As for the experimental part:
as §1, §2, §3, §4, §5, §6, §7

In assay [4] the test system is S6RP serine-240/244 phosphorylation. Put plainly: In vitro phospho-S6 cellular assay (HEK293T/17). The class given is cell-based. The following applies: Homo sapiens; HEK293T/17 cells, 2 hours, pS6RP Ser240/244; read-out: Inhibition values (IC50) pS6. The text has this: Activation of mTOR signaling results in phosphorylation of several downstream targets. In cells, mTOR exists in two different protein complexes. The mTOR Complex-1 (mTORC1) phosphorylates and activates S6 Kinase 1 (S6K1) and S6 Kinase 2 (S6K2) (also known as p70S6K) which then phosphorylate S6 Ribosomal Protein (S6RP) (also known as RPS6)3. S6RP is phosphorylated on serine 235, senile 236, serine 240 and serine 244 by both pS6K1 and pS6K2. The mTOR Complex-2 (mTORC2) phosphorylates AKT on serine 473 which activates the AKT signaling pathway.
The assay measures a test compound's inhibition of S6RP serine-240/244 phosphorylation and inhibition of Akt serine-473 phosphorylation in human embryonic kidney derived HEK293T/17 cells (ATCC CRL-11268).
The HEK293T/17 cell line is maintained in DMEM media (Invitrogen catalogue number 41965-039) supplemented with 10% FCS at 37° C. in a 5% CO2 humidified incubator. Cells are seeded in 96-well plates at 40,000 cells/well (pS6RP S240/244 assay) or 80,000 cells/well (pAkt 5473 assay) in 90 μl growth media (DMEM, 2% FCS). Plates are incubated for 1 hour in a humidified incubator to allow the cells to adhere. Cells are treated with 8 concentrations of test compounds or DMSO alone for controls (final DMSO concentration 0.1%) and incubated at 37° C. for 2 hours. Then 20 μl of 5× concentrated lysis buffer (750 mM NaCl, 100 mM Tris pH7.4, 5 mM ADTA, 5 mM EGTA, 5% Triton X-100) is added, plates are sealed and incubated for 15 minutes at 4° C. with gentle shaking After cell lysis, 25 μl cell lysate is transferred to a MesoScale plate coated with an antibody to pS6RP Ser240/244 (MesoScale Discovery K150DGD-3) or an antibody to pAkt Ser 473 (MesoScale Discovery K151DGD-3). Plates have been blocked before by incubation with 150 μl MesoScale Discovery Blocking Solution-A for 1 hour at room temperature followed by washing with 150 μl 1×Tris wash buffer per well. After the transfer of the cell lysate to the MSD plate, the pS6RP (or pAkt) protein is captured on the coated antibody by incubation at room temperature for 1 hour with gentle shaking. After the capture step the plate is washed three times with 150 μl of 1× Tris wash buffer per well. Then 25 μl detection antibody conjugated with a Sulfo-Tag is added and incubated for 1 hour at room temperature with gentle shaking. Subsequently the antibody solution is removed and the plate is washed 3 times with 150 μl 1×Tris wash buffer per well and 150 μl Read buffer is added. The plates are analysed on a MSD 2400 Plate Reader (MesoScale Discovery). Data analysis is performed using nonlinear regression for a sigmoidal dose-response with a variable slope.

Assay [5] concerns the target T4, mTOR (Homo sapiens, UniProt P42345).
T4 construct: Jurkat cells were homogenized in a Potter S homogenizer in lysis buffer; endogenous in cells; host or cells: Jurkat, clone E6-1 (ATCC TIB-152) lysate
The assay is described as follows: mTOR kinobeads assay (Jurkat cell lysate, dot blot detection). The class given is binding. The conditions noted are these: read-out: Inhibition values (IC50) mTor. As for the experimental part: as §1, §2, §3, §4, §5, §6, §7

For assay [6], the target named is T5, PI3K alpha (PI3Kα) (Homo sapiens, UniProt P42336).
T5 construct: Jurkat cells were homogenized in a Potter S homogenizer in lysis buffer; endogenous in cells; host or cells: Jurkat, clone E6-1 (ATCC TIB-152) lysate
T5 sequence (P42336 whole entry): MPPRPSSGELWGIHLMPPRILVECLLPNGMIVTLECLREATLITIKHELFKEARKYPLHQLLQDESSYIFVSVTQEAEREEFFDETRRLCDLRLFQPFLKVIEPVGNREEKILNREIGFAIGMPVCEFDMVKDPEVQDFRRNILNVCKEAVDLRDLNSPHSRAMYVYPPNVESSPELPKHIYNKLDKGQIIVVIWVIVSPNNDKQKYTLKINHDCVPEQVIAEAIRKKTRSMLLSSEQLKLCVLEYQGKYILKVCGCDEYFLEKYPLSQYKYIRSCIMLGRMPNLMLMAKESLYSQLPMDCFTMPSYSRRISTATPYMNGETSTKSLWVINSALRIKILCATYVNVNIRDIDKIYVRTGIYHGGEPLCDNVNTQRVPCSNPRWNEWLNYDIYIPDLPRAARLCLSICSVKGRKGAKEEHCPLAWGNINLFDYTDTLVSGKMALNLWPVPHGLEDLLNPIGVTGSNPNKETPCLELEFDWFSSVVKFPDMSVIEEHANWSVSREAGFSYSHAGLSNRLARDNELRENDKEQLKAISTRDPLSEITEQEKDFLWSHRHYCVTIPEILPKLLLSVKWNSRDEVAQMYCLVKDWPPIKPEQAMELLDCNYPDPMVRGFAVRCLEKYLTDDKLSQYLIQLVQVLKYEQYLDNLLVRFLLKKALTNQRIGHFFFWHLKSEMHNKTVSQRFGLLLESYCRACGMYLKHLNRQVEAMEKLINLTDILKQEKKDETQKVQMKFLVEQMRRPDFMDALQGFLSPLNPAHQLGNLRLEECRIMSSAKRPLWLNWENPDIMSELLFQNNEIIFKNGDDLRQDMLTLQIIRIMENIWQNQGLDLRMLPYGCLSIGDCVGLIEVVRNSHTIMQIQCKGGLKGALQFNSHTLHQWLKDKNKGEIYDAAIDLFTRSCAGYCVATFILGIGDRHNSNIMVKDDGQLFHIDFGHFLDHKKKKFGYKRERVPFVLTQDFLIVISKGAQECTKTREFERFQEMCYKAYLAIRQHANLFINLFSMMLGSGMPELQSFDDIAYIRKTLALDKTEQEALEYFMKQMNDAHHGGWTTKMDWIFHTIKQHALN
T5 sequence (P27986 whole entry partner): as the sequence (P27986 whole entry partner) above
The assay is described as follows: kinobeads assay, PI3K alpha. The conditions noted are these: Jurkat cell lysate, read-out: Inhibition values (IC50) PI3Ka. The class given is binding. As for the experimental part:
as §1, §2, §3, §4, §5, §6, §7

Assay [7] deals with T6, PI3K gamma (PI3Kg) (Homo sapiens, UniProt P48736).
T6 construct: Jurkat cells were homogenized in a Potter S homogenizer in lysis buffer; endogenous in cells; host or cells: Jurkat, clone E6-1 (ATCC TIB-152) lysate
T6 sequence (P48736 whole entry): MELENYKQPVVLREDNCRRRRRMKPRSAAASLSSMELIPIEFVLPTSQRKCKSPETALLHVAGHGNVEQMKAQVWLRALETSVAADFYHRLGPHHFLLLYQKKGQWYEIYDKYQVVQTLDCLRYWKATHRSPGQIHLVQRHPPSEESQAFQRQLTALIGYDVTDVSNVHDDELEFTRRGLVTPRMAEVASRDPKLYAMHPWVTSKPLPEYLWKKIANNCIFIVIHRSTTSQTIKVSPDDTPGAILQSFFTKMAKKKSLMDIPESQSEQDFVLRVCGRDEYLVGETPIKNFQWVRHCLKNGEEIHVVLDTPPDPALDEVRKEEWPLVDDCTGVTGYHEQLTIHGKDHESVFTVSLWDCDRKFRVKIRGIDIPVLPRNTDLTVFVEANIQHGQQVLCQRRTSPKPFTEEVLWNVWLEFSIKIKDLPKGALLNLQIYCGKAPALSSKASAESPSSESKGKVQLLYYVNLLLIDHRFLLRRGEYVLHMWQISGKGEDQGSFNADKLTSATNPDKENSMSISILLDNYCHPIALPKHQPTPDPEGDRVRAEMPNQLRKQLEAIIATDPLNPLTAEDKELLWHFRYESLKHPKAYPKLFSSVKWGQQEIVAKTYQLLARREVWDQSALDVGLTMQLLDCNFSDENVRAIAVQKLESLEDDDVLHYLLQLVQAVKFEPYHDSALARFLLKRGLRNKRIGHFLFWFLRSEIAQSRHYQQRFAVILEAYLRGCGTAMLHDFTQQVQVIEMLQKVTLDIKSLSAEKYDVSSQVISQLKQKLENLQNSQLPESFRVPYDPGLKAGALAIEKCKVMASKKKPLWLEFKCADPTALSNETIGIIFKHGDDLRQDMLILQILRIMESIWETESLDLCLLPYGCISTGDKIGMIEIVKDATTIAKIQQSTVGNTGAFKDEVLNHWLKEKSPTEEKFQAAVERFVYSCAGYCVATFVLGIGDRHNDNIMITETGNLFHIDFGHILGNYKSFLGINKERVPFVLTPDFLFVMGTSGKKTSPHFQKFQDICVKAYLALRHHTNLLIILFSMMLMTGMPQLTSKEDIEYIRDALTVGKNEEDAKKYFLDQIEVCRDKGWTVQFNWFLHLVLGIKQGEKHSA
The assay is described as follows: kinobeads assay, PI3K gamma. The class given is binding. The conditions noted are these: Jurkat cell lysate, read-out: Inhibition values (IC50) PI3Kg. As for the experimental part:
as §1, §2, §3, §4, §5, §6, §7

Bounds are passed on as bounds.

For orientation: IC50 means the concentration that gives 50% inhibition.

T1 sequence (P42338 whole entry): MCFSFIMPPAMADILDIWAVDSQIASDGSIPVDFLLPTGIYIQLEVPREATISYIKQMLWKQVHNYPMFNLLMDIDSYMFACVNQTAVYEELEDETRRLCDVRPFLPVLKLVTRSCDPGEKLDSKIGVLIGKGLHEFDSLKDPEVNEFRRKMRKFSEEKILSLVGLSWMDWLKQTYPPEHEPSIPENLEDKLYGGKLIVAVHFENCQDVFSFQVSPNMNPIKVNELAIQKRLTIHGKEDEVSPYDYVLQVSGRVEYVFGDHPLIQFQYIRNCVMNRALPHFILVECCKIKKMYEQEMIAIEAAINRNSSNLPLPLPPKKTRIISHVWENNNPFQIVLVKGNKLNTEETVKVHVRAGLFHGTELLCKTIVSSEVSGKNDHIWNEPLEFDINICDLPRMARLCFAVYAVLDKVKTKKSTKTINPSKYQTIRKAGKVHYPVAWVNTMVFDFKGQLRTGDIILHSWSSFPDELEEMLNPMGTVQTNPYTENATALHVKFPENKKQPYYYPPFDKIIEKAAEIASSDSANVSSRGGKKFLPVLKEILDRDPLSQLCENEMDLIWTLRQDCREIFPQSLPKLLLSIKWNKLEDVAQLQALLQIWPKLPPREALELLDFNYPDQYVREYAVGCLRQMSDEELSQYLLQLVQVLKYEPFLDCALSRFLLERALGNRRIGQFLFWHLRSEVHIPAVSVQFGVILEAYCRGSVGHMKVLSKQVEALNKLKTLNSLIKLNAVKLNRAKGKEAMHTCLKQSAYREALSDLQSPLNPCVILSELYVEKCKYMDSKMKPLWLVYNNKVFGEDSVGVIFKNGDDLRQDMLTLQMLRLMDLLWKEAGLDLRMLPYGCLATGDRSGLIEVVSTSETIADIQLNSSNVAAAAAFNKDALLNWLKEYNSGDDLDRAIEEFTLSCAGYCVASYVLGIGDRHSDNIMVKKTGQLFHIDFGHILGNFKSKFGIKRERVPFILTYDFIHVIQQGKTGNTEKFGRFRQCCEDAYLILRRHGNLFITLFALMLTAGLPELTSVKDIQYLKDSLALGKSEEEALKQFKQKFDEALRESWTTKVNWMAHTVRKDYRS
T1 sequence (P27986 whole entry partner): as the sequence (P27986 whole entry partner) above

Take `CC(C)NC(=O)Nc1ccc(-c2nc(-c3ccccc3S(C)(=O)=O)nc(N3CCOC[C@@H]3C)n2)cc1` [Example 15, (S)-1-isopropyl-3-(4-(4-(3-methylmorpholino)-6-(2-(methylsulfonyl)phenyl)-1,3,5-triazin-2-yl)phenyl)urea]: the IC50 is more than 10 µM in assay [1]; more than 10 µM in assay [2]; more than 10 µM in assay [3]; less than 0.1 µM in assay [4]; 0.1 to 1 µM in assay [5]; more than 10 µM in assay [6]. In addition, the half-maximal inhibitory concentration (IC50) in assay [7] was more than 10 µM.
`CS(=O)(=O)c1ccccc1-c1nc(-c2ccc(NC(=O)NC3CC3)cc2)nc(N2C3CCC2COC3)n1` [Example 16, 1-(4-(4-(3-oxa-8-azabicyclo[3.2.1]octan-8-yl)-6-(2-(methylsulfonyl)phenyl)-1,3,5-triazin-2-yl)phenyl)-3-cyclopropylurea]: the IC50 was more than 10 µM in assay [1]; more than 10 µM in assay [2]; more than 10 µM in assay [3]; less than 0.1 µM in assay [4]; 0.1 to 1 µM in assay [5]; more than 10 µM in assay [6]. Also, in assay [7], the IC50 is more than 10 µM.
For `CCS(=O)(=O)c1ccccc1-c1nc(-c2ccc(NC(=O)NC3CC3)cc2)nc(N2CCOC[C@@H]2C)n1` [Example 17, (S)-1-cyclopropyl-3-(4-(4-(2-(ethylsulfonyl)phenyl)-6-(3-methylmorpholino)-1,3,5-triazin-2-yl)phenyl)urea], the IC50 is more than 10 µM in assay [1]; more than 10 µM in assay [2]; more than 10 µM in assay [3]; less than 0.1 µM in assay [4]; 0.1 to 1 µM in assay [5]; more than 10 µM in assay [6]. Further, the IC50 in assay [7] was more than 10 µM.
Turning to `CCCNC(=O)Nc1ccc(-c2nc(-c3ccccc3S(C)(=O)=O)nc(N3CCOC[C@@H]3C)n2)cc1` [Example 18, (S)-1-(4-(4-(3-methylmorpholino)-6-(2-(methylsulfonyl)phenyl)-1,3,5-triazin-2-yl)phenyl)-3-propylurea], the IC50 is more than 10 µM in assay [1]; more than 10 µM in assay [2]; more than 10 µM in assay [3]; less than 0.1 µM in assay [4]; 0.1 to 1 µM in assay [5]; more than 10 µM in assay [6]. The half-inhibitory concentration (IC50) in assay [7] was more than 10 µM.
For the molecule `CC(C)CNC(=O)Nc1ccc(-c2nc(-c3ccccc3S(C)(=O)=O)nc(N3CCOC[C@@H]3C)n2)cc1` [Example 19, (S)-1-isobutyl-3-(4-(4-(3-methylmorpholino)-6-(2-(methylsulfonyl)phenyl)-1,3,5-triazin-2-yl)phenyl)urea], the IC50 in assay [1] is more than 10 µM; in assay [2], more than 10 µM; in assay [3], more than 10 µM; in assay [4] it was 0.1 to 1 µM; in assay [5] it was 1 to 10 µM; in assay [6], more than 10 µM. In addition, the IC50 in assay [7] was more than 10 µM.
For `C[C@H]1COCCN1c1nc(-c2ccc(NC(=O)NC3CCCC3)cc2)nc(-c2ccccc2S(C)(=O)=O)n1` [Example 20, (S)-1-cyclopentyl-3-(4-(4-(3-methylmorpholino)-6-(2-(methylsulfonyl)phenyl)-1,3,5-triazin-2-yl)phenyl)urea], the IC50 in assay [1] is 1 to 10 µM; in assay [2], 1 to 10 µM; in assay [3] it was more than 10 µM; in assay [4] it was less than 0.1 µM; in assay [5] it was 0.1 to 1 µM; in assay [6] it was 1 to 10 µM. For the same molecule, the IC50 in assay [7] was more than 10 µM.
Turning to `CS(=O)(=O)c1ccccc1-c1nc(-c2ccc(NC(=O)NC3CC3)cc2)nc(N2CCCOCC2)n1` [Example 21, 1-cyclopropyl-3-(4-(4-(2-(methylsulfonyl)phenyl)-6-(1,4-oxazepan-4-yl)-1,3,5-triazin-2-yl)phenyl)urea], the IC50 was more than 10 µM in assay [1]; more than 10 µM in assay [2]; more than 10 µM in assay [3]; 0.1 to 1 µM in assay [4]; 0.1 to 1 µM in assay [5]; more than 10 µM in assay [6]. For the same molecule, in assay [7], the IC50 is more than 10 µM.
As for `CC1(C)COCCN1c1nc(-c2ccc(NC(=O)NC3CC3)cc2)nc(-c2ccccc2S(C)(=O)=O)n1` [Example 22, 1-cyclopropyl-3-(4-(4-(3,3-dimethylmorpholino)-6-(2-(methylsulfonyl)phenyl)-1,3,5-triazin-2-yl)phenyl)urea], the half-inhibitory concentration (IC50) is more than 10 µM in assay [1]; more than 10 µM in assay [2]; more than 10 µM in assay [3]; less than 0.1 µM in assay [4]; 0.1 to 1 µM in assay [5]; more than 10 µM in assay [6]. Besides, the IC50 in assay [7] is more than 10 µM.
